Assay results as given in patent US20230265105A1, “MACROCYCLIC 7-PYRAZOL-5-YL-INDOLE DERIVATIVES AS INHIBITORS OF MCL-1” (Janssen Pharmaceutica NV, priority 2020, published 2023).

Key:
[1] = biological target: Myeloid Cell Leukemia 1 (Mcl-1) (Homo sapiens, UniProt Q07820); assay: Terbium labeled Mcl-1 HTRF binding assay with Cy5-labeled BIM BH3 peptide; conditions: Ki=IC50/(1+[L]/Kd), [L]=8 nM, Kd=10 nM, 60 min incubation at room temperature, read-out: Tb-MCL1 Ki
Experimental: Terbium labeled Myeloid Cell Leukemia 1 (Mcl-1) homogeneous time-resolved fluorescence (HTRF) binding assay utilizing the BIM BH3 peptide (H2N-(C/Cy5Mal) WIAQELRRIGDEFN-OH) as the binding partner for Mcl-1.
This assay evaluated inhibition of the BH3 domain: Mcl-1 interaction by measuring the displacement of Cy5-labeled BIM BH3 peptide (H2N—(C/Cy5Mal) WIAQELRRIGDEFN-OH) in the HTRF assay format.
The following assay and stock buffers were prepared for use in the assay: (a) Stock buffer: 10 mM Tris-HCl, pH=7.5+150 mM NaCl, filtered, sterilized, and stored at 4° C.; and (b) 1×assay buffer, where the following ingredients were added fresh to stock buffer: 2 mM dithiothreitol (DTT), 0.0025% Tween-20, 0.1 mg/mL bovine serum albumin (BSA). The 1×Tb-Mcl-1+Cy5 Bim peptide solution was prepared by diluting the protein stock solution using the 1×assay buffer (b) to 25 pM Tb-Mcl-1 and 8 nM Cy5 Bim peptide.
Using the Acoustic ECHO, 100 nL of 100×test compound(s) were dispensed into individual wells of a white 384-well Perkin Elmer Proxiplate, for a final compound concentration of 1× and final DMSO concentration of 1%. Inhibitor control and neutral control (NC, 100 nL of 100% DMSO) were stamped into columns 23 and 24 of assay plate, respectively. Into each well of the plate was then dispensed 10 μL of the 1×Tb-Mcl-1+Cy5 Bim peptide solution. The plate was centrifuged with a cover plate at 1000 rpm for 1 minute, then incubated for 60 minutes at room temperature with plates covered.
The TR-FRET signal was read on an BMG PHERAStar FSX MicroPlate Reader at room temperature using the HTRF optic module (HTRF: excitation: 337 nm, light source: laser, emission A: 665 nm, emission B: 620 nm, integration start: 60 μs, integration time: 400 μs).
The BMG PHERAStar FSX MicroPlate Reader was used to measure fluorescence intensity at two emission wavelengths—665 nm and 620 nm—and report relative fluorescence units (RFU) for both emissions, as well as a ratio of the emissions (665 nm/620 nm)*10,000. The RFU values were normalized to percent inhibition as follows:
% inhibition=(((NC−IC)−(compound−IC))/(NC−IC))*100
where IC (inhibitor control, low signal)=mean signal of 1×Tb-MCl-1+Cy5 Bim peptide+inhibitor control or 100% inhibition of Mcl-1; NC (neutral control, high signal)=mean signal 1×Tb-MCl-1+Cy5 Bim peptide with DMSO only or 0% inhibition
An 11-point dose response curve was generated to determine IC50 values (using GenData) based on the following equation:
Y=Bottom+(Top−Bottom)/(1+10^((log IC50−X)*HillSlope))
where Y=% inhibition in the presence of X inhibitor concentration; Top=100% inhibition derived from the IC (mean signal of Mcl-1+inhibitor control); Bottom=0% inhibition derived from the NC (mean signal of Mcl-1+DMSO); Hillslope=Hill coefficient; and IC50=concentration of compound with 50% inhibition in relation to top/neutral control (NC).
In this assay [L]=8 nM and Kd=10 nM
Representative compounds of the present invention were tested according to the procedure as described above, with results as listed in the Table below (n.d. means not determined).

[2] = tested on: MOLP-8 human multiple myeloma cell line; assay: MOLP8 Caspase-Glo 3/7 apoptosis induction assay; type: cell-based; conditions: MOLP-8 cells, 2 hours at 37° C., 30 μM highest conc., averaged over all runs on all batches
Description: MCL-1 is a regulator of apoptosis and is highly over-expressed in tumor cells that escape cell death. The assay evaluates the cellular potency of small-molecule compounds targeting regulators of the apoptosis pathway, primarily MCL-1, Bfl-1, Bcl-2, and other proteins of the Bcl-2 family. Protein-protein inhibitors disrupting the interaction of anti-apoptotic regulators with BH3-domain proteins initiate apoptosis.
The Caspase-Glo® 3/7 Assay is a luminescent assay that measures caspase-3 and -7 activities in purified enzyme preparations or cultures of adherent or suspension cells. The assay provides a proluminescent caspase-3/7 substrate, which contains the tetrapeptide sequence DEVD. This substrate is cleaved to release aminoluciferin, a substrate of luciferase used in the production of light. Addition of the single Caspase-Glo® 3/7 Reagent in an “add-mix-measure” format results in cell lysis, followed by caspase cleavage of the substrate and generation of a “glow-type” luminescent signal.
This assay uses the MOLP-8 human multiple myeloma cell line, which is sensitive to MCL-1 inhibition.
Cell cultures were maintained between 0.2 and 2.0×10^6 cells/mL. The cells were harvested by collection in 50 mL conical tubes. The cells were then pelleted at 500 g for 5 mins before removing supernatant and resuspension in fresh pre-warmed culture medium. The cells were counted and diluted as needed.
The assay reagent was prepared by transferring the buffer solution to the substrate vial and mixing. The solution may be stored for up to 1 week at 4° C. with negligible loss of signal.
Compounds were delivered in assay-ready plates (Proxiplate) and stored at −20° C.
Assays always include 1 reference compound plate containing reference compounds. The plates were spotted with 40 nL of compounds (0.5% DMSO final in cells; serial dilution; 30 μM highest conc. 1/3 dilution, 10 doses, duplicates). The compounds were used at room temperature and 4 μL of pre-warmed media was added to all wells except column 2 and 23. The negative control was prepared by adding 1% DMSO in media. The positive control was prepared by adding the appropriate positive control compound in final concentration of 60 μM in media. The plate was prepared by adding 4 μL negative control to column 23, 4 μL positive control to column 2 and 4 μL cell suspension to all wells in the plate. The plate with cells was then incubated at 37° C. for 2 hours. The assay signal reagent is the Caspase-Glo solution described above, and 8 μL was added to all wells. The plates were then sealed and measured after 30 minutes.
The activity of a test compound was calculated as percent change in apoptosis induction as follows:
[formula] [formula] % Effect (AC50)=100−((sample−LC)/(HC−LC))*100
% Control=(sample/HC)*100
% Control min=(sample−LC)/(HC−LC)*100

Sequence of Myeloid Cell Leukemia 1 (Mcl-1) (Q07820 whole entry): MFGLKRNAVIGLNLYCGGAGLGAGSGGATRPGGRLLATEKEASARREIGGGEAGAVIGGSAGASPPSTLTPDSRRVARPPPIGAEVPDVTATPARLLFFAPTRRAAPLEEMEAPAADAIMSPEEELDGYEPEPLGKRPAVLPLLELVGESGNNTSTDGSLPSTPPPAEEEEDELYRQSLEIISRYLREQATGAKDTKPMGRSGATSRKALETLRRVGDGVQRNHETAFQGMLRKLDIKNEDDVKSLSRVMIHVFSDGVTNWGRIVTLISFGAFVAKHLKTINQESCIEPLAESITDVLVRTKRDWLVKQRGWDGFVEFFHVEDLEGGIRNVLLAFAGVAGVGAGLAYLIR

SMILES | Ki [1] [nM] | AC50 [2] [nM] | AC50 ([2]; Homo sapiens, MOLP-8, 2 h) [nM]
Cc1nn(C)c2c1CSCc1cc(n(C)n1)CCc1cc(c3ccccc3c1)OCCCc1c(C(=O)O)n(C)c3c-2c(Cl)ccc13 (single isomer, unassigned) [Compound 12a] | 0.031 | 29 | –
COCCOCCn1c(C(=O)O)c2c3ccc(Cl)c(c31)-c1c(cnn1C)CSCc1cc(n(C)n1)CCc1cc(c3ccc(F)cc3c1)OCCC2 (single isomer, unassigned) [Compound 22] | 0.029 | 22 | –
COCCOCc1nn(C)c2c1CSCc1cc(n(C)n1)CCc1cc(c3ccc(F)cc3c1)OCCCc1c(C(=O)O)n(C)c3c-2c(Cl)ccc13 (single isomer, unassigned) [Compound 7] | 52.3 | 20400 | –
Cn1nc2cc1CCc1cc(c3ccc(F)cc3c1)OCCCc1c(C(=O)O)[nH]c3c(c(Cl)ccc13)-c1c(cnn1C)CSC2 (single isomer, unassigned) [Compound 25] | 0.807 | 4130 | –
Cn1nc2cc1CCc1cc(c3ccc(F)cc3c1)OCCCc1c(C(=O)O)[nH]c3c(c(Cl)ccc13)-c1c(cnn1C)CSC2 (single isomer, unassigned) [Compound 26] | 0.045 | 235 | –
CN(C)CCn1c(C(=O)O)c2c3ccc(Cl)c(c31)-c1c(cnn1C)CSCc1cc(n(C)n1)CCc1cc(c3ccc(F)cc3c1)OCCC2 (single isomer, unassigned) [Compound 27] | 0.031 | – | 117
Cn1nc2cc1CCc1cc(c3ccc(F)cc3c1)OCCCc1c(C(=O)O)n(CCN3CCOCC3)c3c(c(Cl)ccc13)-c1c(cnn1C)CSC2 (single isomer, unassigned) [Compound 21] | 0.02 | 82 | –
COCCOCCc1nn(C)c2c1CSCc1cc(n(C)n1)CCc1cc(c3ccc(F)cc3c1)OCCCc1c(C(=O)O)n(C)c3c-2c(Cl)ccc13 (single isomer, unassigned) [Compound 18] | 2.1 | 2430 | –
COCCOCc1nn(C)c2c1CSCc1cc(n(C)n1)CCc1cc(c3ccccc3c1)OCCCc1c(C(=O)O)n(C)c3c-2c(Cl)ccc13 (single isomer, unassigned) [Compound 4] | 0.023 | 46 | –
Cn1nc2cc1CCc1cc(c3ccc(F)cc3c1)OCCCc1c(C(=O)O)n(CCN3CCOCC3)c3c(c(Cl)ccc13)-c1c(cnn1C)CSC2 (single isomer, unassigned) [Compound 19] | 50.1 | 29500 | –
COCCn1c(C(=O)O)c2c3ccc(Cl)c(c31)-c1c(cnn1C)CSCc1cc(n(C)n1)CCc1cc(c3ccc(F)cc3c1)OCCC2 (single isomer, unassigned) [Compound 23] | 0.024 | 27 | –
COCCOCc1nn(C)c2c1CSCc1cc(n(C)n1)CCc1cc(c3ccc(F)c(F)c3c1)OCCCc1c(C(=O)O)n(C)c3c-2c(Cl)ccc13 (single isomer, unassigned) [Compound 16] | 0.021 | 13 | –
Cc1nn(C)c2c1CSCc1cc(n(C)n1)CSc1cc(c3ccccc3c1)OCCCc1c(C(=O)O)n(C)c3c-2c(Cl)ccc13 (single isomer, unassigned) [Compound 2] | 0.039 | 54 | –
Cn1nc2cc1CSc1cc(c3ccccc3c1)OCCCc1c(C(=O)O)n(C)c3c(c(Cl)ccc13)-c1c(cnn1C)CSC2 (single isomer, unassigned) [Compound 6] | 0.062 | – | 58
COCCn1c(C(=O)O)c2c3ccc(Cl)c(c31)-c1c(cnn1C)CSCc1cc(n(C)n1)CCc1cc(c3ccc(F)cc3c1)OCCC2 (single isomer, unassigned) [Compound 24] | 2.15 | 2530 | –
Cc1nn(C)c2c1CSCc1cc(n(C)n1)CCc1cc(c3ccc(F)cc3c1)OCCCc1c(C(=O)O)n(C)c3c-2c(Cl)ccc13 (single isomer, unassigned) [Compound 9] | 18.7 | 8960 | –
COCCOCc1nn(C)c2c1CSCc1cc(n(C)n1)CCc1cc(c3ccc(F)cc3c1)OCCCc1c(C(=O)O)n(C)c3c-2c(Cl)ccc13 (single isomer, unassigned) [Compound 8] | 0.025 | 15 | –
COCCOCCn1c(C(=O)O)c2c3ccc(Cl)c(c31)-c1c(cnn1C)CSCc1cc(n(C)n1)CCc1cc(c3ccc(F)cc3c1)OCCC2 (single isomer, unassigned) [Compound 20] | 200 | 30000 | –
COCCOCc1nn(C)c2c1CSCc1cc(n(C)n1)CCc1cc(c3ccc(F)c(F)c3c1)OCCCc1c(C(=O)O)n(C)c3c-2c(Cl)ccc13 (single isomer, unassigned) [Compound 15] | 2.58 | 1400 | –
CCn1c(C(=O)O)c2c3ccc(Cl)c(c31)-c1c(cnn1C)CCCc1cc(n(C)n1)CCc1cc(c3ccc(F)cc3c1)OCCC2 (single isomer, unassigned) [Compound 13] | 0.051 | 22 | –
Cc1nn(C)c2c1CSCc1cc(n(C)n1)CCc1cc(c3ccccc3c1)OCCCc1c(C(=O)O)n(C)c3c-2c(Cl)ccc13 (single isomer, unassigned) [Compound 11a] | 3.68 | 2380 | –
COCCOCc1nn(C)c2c1CSCc1cc(n(C)n1)CCc1cc(c3ccccc3c1)OCCCc1c(C(=O)O)n(C)c3c-2c(Cl)ccc13 (single isomer, unassigned) [Compound 3] | 98.2 | > 30000 | –
COCCOCCc1nn(C)c2c1CSCc1cc(n(C)n1)CCc1cc(c3ccc(F)cc3c1)OCCCc1c(C(=O)O)n(C)c3c-2c(Cl)ccc13 (single isomer, unassigned) [Compound 17] | 0.011 | 15 | –
Cc1nn(C)c2c1CSCc1cc(n(C)n1)CCc1cc(c3ccc(F)cc3c1)OCCCc1c(C(=O)O)n(C)c3c-2c(Cl)ccc13 (single isomer, unassigned) [Compound 10a] | 0.041 | 68 | –
